Broadly, the IC50 is the concentration that inhibits the measured activity by half.

SMILES strings stand for the structures. Where two headings read alike, the source gives them in different places. Where only a bound is given, the exact number is not on record here.

Series [1] has as its system Human Trabecular Meshwork Cells. The series can be described thus: Cellular cGMP assay in human trabecular meshwork cells. Type of series: cell-based. To be noted: HTMC, 10 μM Riociguat; for Concentration (nM) for 3-fold or 2-fold* cGMP increase vs Baseline: 3-fold increase (values without asterisk); for Ratio Maximum cGMP increase vs Baseline: 5 mM GSH, incubation 2 h.

The target in series [2] is T1, recombinant human (rh) PDE5A (Homo sapiens, UniProt O76074).
T1 construct: GST; purchased SIGMA E9034
Description: Phosphodiesterase-5 activity assay (radiometric SPA). To be noted: rhPDE5A1, 0.5 μM cGMP, 20 min at 37° C. It counts as biochemical.

Another series relates to Human Platelets. Description: Total cGMP in human platelets. To be noted: for Ratio Maximum cGMP increase vs Baseline: 1 μM riociguat and 100 nM BAY 190954, incubation 2 h; for Concentration (nM) for 3-fold cGMP or 2-fold* increase vs Baseline: 3-fold increase (values without asterisk), 1 μM riociguat, 100 nM BAY 190954. It counts as cell-based. On the procedure: Effects of test and reference compounds on total cGMP in human platelets were investigated as described by Dunkern and Hatzelmann (Cell Signal. 17: 331-9, 2005) with modifications. Briefly, buffy coats (acquired form SRK Blutspende Zurich) were 4-fold diluted in 150 mM sodium chloride solution containing 0.9% sodium citrate and centrifuged at 200 g for 10 min. The resulting platelet-rich plasma was supplemented with a 1/10 volume of ACD solution (85 mM sodium citrate, 111 mM D-glucose, 71 mM citric acid, pH 4.4) and apyrase (Sigma AG) to a final concentration of 2 U/ml. After another centrifugation (1400 g, 10 min) the cellular pellet was resuspended in Ca2+/Mg2+-free Hepes-Tyrode buffer (134 mM NaCl, 12 mM NaHCO3, 2.9 mM KCl, 0.36 mM NaH2PO4, 5 mM HEPES, 5 mM glucose, 0.5% (w/v) bovine serum albumin, pH 7.4) and platelets were counted.
Platelets were used at 9×10^7 cells in 100 μl per well and after adding test and reference compounds the incubation volume was 200 μl per well in Hepes-Tyrode. Experiments in platelets were done in presence of 1 μM riociguat and 100 nM BAY 190954 (PDE2 inhibitor) (Lucerna Chem AG) and test/reference compounds were added after a preincubation time of 15 min. At the end of the incubation time (see below) the reaction was terminated by adding 20 μl of 2N HCl per well. Following a 20 sec on a plate shaker (300 rpm) the plate was left for 15 min and then centrifuged at 1000×g for 5 min. Supernatants were stored at −80° C.
(§1) cGMP was determined by a commercially available ELISA kit (Direct cGMP ELISA kit, Enzo Life Sciences AG, Lauren, Switzerland) with a lower detection limit of 0.08 pmol/ml using the acetylation protocol following manufacturer's instructions. Results are given as the means from at least two independent experiments each in triplicate.
(§2) To study concentration-dependent effects on total cGMP test and reference compounds were investigated from 0.1 nM to 1 μM in half-logarithmic steps with an incubation time of 2 h. To examine the time course the incubation times were (min) 10, 30, 60, 90, 120 at 1 μM of test or reference compound.
(§3) Compounds were diluted from stock solutions in DMSO. The final concentration of DMSO in all wells including the vehicle controls was 0.2% for human trabecular meshwork and rat aortic smooth muscle cells and 0.3% for platelets.
(§4) From time course experiments, the time to half of the maximum cGMP increase with 1 μM of test compound has been extrapolated (t0.5max).

Series [3] concerns Rat aortic smooth muscle cells. Description: Cellular cGMP assay in rat aortic smooth muscle cells. Type of series: cell-based. To be noted: 10 μM Riociguat; for Ratio Maximum cGMP increase vs Baseline: 5 mM GSH, incubation 2 h. On the procedure:
Examples (Test compounds) were characterized for their potency and efficacy to elevate cGMP in cellular systems such as human trabecular meshwork cells (Table 3), human platelets (Table 5) and rat aortic smooth muscle cells (Table 4).
Human trabecular meshwork cells (ABC Biopply AG, Solothurn, Switzerland) or rat aortic smooth muscle cells (Sigma Aldrich AG, Buchs, Switzerland) were plated in a 96 well plate precoated with collagen (Collagen Type I solution from rat tail, Sigma; diluted to 0.1 mg/ml) at 20.000 cells per well and grown in corresponding Trabecular Meshwork (ABC Supply AG) or Smooth Muscle (Sigma AG) Growth medium as provided by the manufacturers. After 18 h medium was exchanged and new medium added supplemented with 5 mM GSH. The next day culture medium was exchanged to DMEM with low glucose supplemented with 5 mM GSH. Cells were pre-incubated with 10 μM Riociguat (soluble guanylate cyclase stimulator; Lucerna-Chem AG, Luzern, Switzerland) for 15 min before test or reference compounds or vehicle was added to a final incubation volume of 100 μl per well. At the end of the incubation time (see below) the reaction was terminated by adding HCl (0.16M), IBMX (Isobutylmethylxanthin) (2 mM) in DMSO (2%) to the culture medium, final concentrations per well are given in brackets. Following a 20 sec on a plate shaker (200 rpm) the plate was immediately frozen at −80° C.
as §1, §2, §3, §4

A short description of series [4]: Human plasma protein binding. Particulars: human. Type of series: in vitro ADME. On the procedure:
An aliquot of 200 μL of human plasma containing test compound was spiked into donor well (red chamber) of the insert. 350 μL of PBS was spiked into receiver well (white chamber) of the insert.
The samples were matrix equilibrated with opposite matrix (25 μL of plasma/buffer sample was matched with 25 μL of blank buffer/plasma). Matrix matched samples were precipitated with 200 μL of acetonitrile containing internal standard. Samples were vortexed at 1000 rpm for 5 min and centrifuged at 4000 rpm for 10 min. Supernatant was separated, diluted 2 fold with water and analysed in LC-MS/MS. (Table 2).

For series [5], the system named is Human Pulmonary Artery Smooth Muscle Cells (hPASMC). Description: cGMP in human pulmonary artery smooth muscle cells (hPASMC). Type of series: cell-based. Particulars: 30 min incubation, FIG. 4. The procedure: Human Pulmonary Artery Smooth Muscle Cells (hPASMC) were purchased from Clonetics™ Lonza (Lonza, reference number CC-2581) and cultured in Clonetics™ smooth muscle growth medium (Clonetics™ SmGM™-2 with BulletKit™ growth factor supplements (Lonza, reference number CC-3182) at 37° C. in 5% CO2. Culture medium was replaced each 48 hours. Cells were grown in 75 cm^2 culture plates.
48 h before the experiments, cells were trypsinized (Trypsin kit One ReagentPack™ (CC-5034), Lonza) and plated in 96 well plates precoated with collagen I at 10000 cells per well. 24 h before the experiments culture medium was replaced by serum-reduced (0.5% FBS) medium.
Measurements of intracellular cGMP were performed using the Amersham cGMP EIA System (GE Healthcare, RPN226) following the instructions of the manufacturer. The assay has a sensitivity of 2 fmol cGMP per well. Briefly, incubations were terminated by adding Amersham's lysis buffer 1 and cells left for 10 min under agitation to ensure complete lysis. cGMP in samples was then acetylated using triethylamine and acetic anhydride and determined by a competitive ELISA. The ELISA is based on the competition between acetylated cGMP in cell culture lysates and a peroxidase-labelled cGMP conjugate for limited binding sites on a cGMP specific antiserum immobilized on pre-coated 96 well MTP. cGMP was determined based on a standard curve. […]

Consider `CCCc1nn(C)c2c(=O)[nH]c(-c3cc(S(=O)(=O)N4CCC([C@H](CO[N+](=O)[O-])O[N+](=O)[O-])CC4)ccc3OCC)nc12` [Compound 1a, (R)-1-(1-((4-ethoxy-3-(1-methyl-7-oxo-3-propyl-6,7-dihydro-1H-pyrazolo[4,3-d]pyrimidin-5-yl)phenyl)sulfonyl)piperidin-4-yl)ethane-1,2-diyl dinitrate], for which, in series [1], the “Concentration (nM) for 3-fold or 2-fold* cGMP increase vs Baseline” value is 26.7 nM and the “Ratio Maximum cGMP increase vs Baseline” value is 55.7. In addition, the IC50 in series [2] was 5 nM. In the series with Human Platelets, the “Ratio Maximum cGMP increase vs Baseline” value was determined as 67.4 and the “Concentration (nM) for 3-fold cGMP or 2-fold* increase vs Baseline” value was 57 nM. Further, in series [3], the “Concentration (nM) for 3-fold cGMP increase vs Baseline” value was found to be 222 nM and the “Ratio Maximum cGMP increase vs Baseline” value came out at 4.44.

For the compound `CCCc1nc(C)c2c(=O)[nH]c(-c3cc(S(=O)(=O)N4CCC([C@@H](O)CO[N+](=O)[O-])CC4)ccc3OCC)nn12` [Compound 2c, (R)-2-(1-((4-ethoxy-3-(5-methyl-4-oxo-7-propyl-3,4-dihydroimidazo[5,1-f][1,2,4]triazin-2-yl)phenyl)sulfonyl)piperidin-4-yl)-2-hydroxyethyl nitrate], in series [1], the “Concentration (nM) for 3-fold or 2-fold* cGMP increase vs Baseline” value was determined as 10.1 nM and the “Ratio Maximum cGMP increase vs Baseline” value was 52.1. The IC50 in series [2] is 0.14 nM. Further, in the series with Human Platelets, the “Ratio Maximum cGMP increase vs Baseline” value is reported as 105.4 and the “Concentration (nM) for 3-fold cGMP or 2-fold* increase vs Baseline” value is listed as 4.3 nM. Besides, in series [3], the “Concentration (nM) for 3-fold cGMP increase vs Baseline” value was found to be 729 nM and the “Ratio Maximum cGMP increase vs Baseline” value turned out to be 5.93.

With `CCCc1nn(C)c2c(=O)[nH]c(-c3cc(S(=O)(=O)N4CCC([C@@H](O)CO)CC4)ccc3OCC)nc12` [Compound 4, (R)-5-(5-((4-(1,2-dihydroxyethyl)piperidin-1-yl)sulfonyl)-2-ethoxyphenyl)-1-methyl-3-propyl-1,6-dihydro-7H-pyrazolo[4,3-d]pyrimidin-7-one], in series [1], the “Concentration (nM) for 3-fold or 2-fold* cGMP increase vs Baseline” value stood at 99.8 nM and the “Ratio Maximum cGMP increase vs Baseline” value is listed as 12.4. Further, the IC50 in series [2] worked out at 1.5 nM. For the same compound, in the series on Human Platelets, the “Ratio Maximum cGMP increase vs Baseline” value is 6.4 and the “Concentration (nM) for 3-fold cGMP or 2-fold* increase vs Baseline” value worked out at 92.6 nM. Moreover, in series [3], the “Concentration (nM) for 3-fold cGMP increase vs Baseline” value is recorded as greater than 10000 nM and the “Ratio Maximum cGMP increase vs Baseline” value is 1.04.

As to `CCCc1nn(C)c2c(=O)[nH]c(-c3cc(S(=O)(=O)N4CCC([C@@H](O)CO[N+](=O)[O-])CC4)ccc3OCC)nc12` [Compound 1c, (R)-2-(1-((4-ethoxy-3-(1-methyl-7-oxo-3-propyl-6,7-dihydro-1H-pyrazolo[4,3-d]pyrimidin-5-yl)phenyl)sulfonyl)piperidin-4-yl)-2-hydroxyethyl nitrate], in series [1], the “Concentration (nM) for 3-fold or 2-fold* cGMP increase vs Baseline” value worked out at 25.1 nM and the “Ratio Maximum cGMP increase vs Baseline” value is 61.9. Moreover, in series [4] (read-out: % Bound in human plasma (converted)), the fraction unbound was 0.0118. Besides, in series [4] (read-out: % Unbound in human plasma), the fraction unbound came to 0.0118. In series [2], the IC50 came to 1 nM. The “efficacy in increasing cGMP level as compared to the reference inhibitor vardenafil” value in series [5] is reported as “significantly higher efficacy”. Moreover, in the series on Human Platelets, the “Ratio Maximum cGMP increase vs Baseline” value turned out to be 26.1 and the “Concentration (nM) for 3-fold cGMP or 2-fold* increase vs Baseline” value was determined as 33.3 nM. Moreover, in series [3], the “Concentration (nM) for 3-fold cGMP increase vs Baseline” value is on record as 1300 nM and the “Ratio Maximum cGMP increase vs Baseline” value was found to be 3.47.

`CCCc1nc(C)c2c(=O)[nH]c(-c3cc(S(=O)(=O)N4CCC([C@@H](O)CO)CC4)ccc3OCC)nn12` [Compound 25, (R)-2-(5-((4-(1,2-dihydroxyethyl)piperidin-1-yl)sulfonyl)-2-ethoxyphenyl)-5-methyl-7-propyl imidazo[5,1-f][1,2,4]triazin-4(3H)-one]: in series [1], the “Concentration (nM) for 3-fold or 2-fold* cGMP increase vs Baseline” value was found to be 58.5 nM and the “Ratio Maximum cGMP increase vs Baseline” value is 22.3. In series [2], the IC50 worked out at 0.08 nM. Also, in the series with Human Platelets, the “Ratio Maximum cGMP increase vs Baseline” value came to 23.3 and the “Concentration (nM) for 3-fold cGMP or 2-fold* increase vs Baseline” value was found to be 5.9 nM. Also, in series [3], the “Concentration (nM) for 3-fold cGMP increase vs Baseline” value is listed as greater than 10000 nM and the “Ratio Maximum cGMP increase vs Baseline” value is recorded as 0.89.

For the origin of these results see patent US12502393B2, “Dual mode of action soluble guanylate cyclase activators and phosphodiesterase inhibitors and uses thereof” (TOPADUR PHARMA AG, priority 2018, dated 2025).
